How the values were obtained:
[1] = biological target: T1, hGLUT1 (Homo sapiens, UniProt P11166); conditions: known hGLUT1 inhibitors; cited from earlier work
T1 sequence (P11166 1-492): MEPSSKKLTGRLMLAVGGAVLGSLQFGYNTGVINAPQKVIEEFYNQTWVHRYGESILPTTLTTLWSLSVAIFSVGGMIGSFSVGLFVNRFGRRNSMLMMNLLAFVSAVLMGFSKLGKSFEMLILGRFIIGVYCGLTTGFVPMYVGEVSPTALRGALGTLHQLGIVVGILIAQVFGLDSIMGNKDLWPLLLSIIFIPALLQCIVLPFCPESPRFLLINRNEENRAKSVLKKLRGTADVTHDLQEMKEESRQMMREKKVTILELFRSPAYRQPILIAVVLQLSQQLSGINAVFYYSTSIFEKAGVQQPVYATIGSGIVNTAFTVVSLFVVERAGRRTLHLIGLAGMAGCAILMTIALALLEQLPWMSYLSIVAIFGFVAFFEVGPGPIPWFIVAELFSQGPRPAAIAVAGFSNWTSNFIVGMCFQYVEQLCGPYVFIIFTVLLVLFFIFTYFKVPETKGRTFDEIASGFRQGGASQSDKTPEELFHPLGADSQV

[2] = biological target: T1, hGLUT1; experiment: [3H]-2-deoxy-D-glucose uptake inhibition assay in CHO-hGLUT1 cells; assay type: cell-based

IC50 [2] [µM]	SMILES	LE (ligand efficiency) [1] [kcal/mol/HA]
	C=C1[C@@H](C)[C@H]2[C@H](Cc3ccccc3)NC(=O)[C@]23OC(=O)/C=C/[C@H](O)CCC[C@@H](C)C/C=C/[C@H]3[C@@H]1O [cytochalasin B]	0.265
	C=C[C@@]1(C)CC(=O)[C@]2(O)[C@@]3(C)[C@@H](O)CCC(C)(C)[C@@H]3[C@H](O)[C@H](OC(C)=O)[C@@]2(C)O1 [forskolin]	0.270
23	O=C(CCc1ccc(O)cc1)c1c(O)cc(O)cc1O[C@@H]1O[C@H](CO)[C@@H](O)[C@H](O)[C@H]1O [PUG-5, phlorizin]	

— publication PMC5356226 (ACS chemical biology, 2016)
